Experimental data: patent US9157062B2, “Compositions and methods for promoting the generation of PDX1+ pancreatic cells” (President and Fellows of Harvard College, priority 2008, dated 2015)
Where a name gives a salt, the structure may show the parent alone. Read-outs that look alike come from different tables or passages of the source.

T1: PKCμ (Homo sapiens, UniProt Q15139)
T1 sequence (Q15139 1-912): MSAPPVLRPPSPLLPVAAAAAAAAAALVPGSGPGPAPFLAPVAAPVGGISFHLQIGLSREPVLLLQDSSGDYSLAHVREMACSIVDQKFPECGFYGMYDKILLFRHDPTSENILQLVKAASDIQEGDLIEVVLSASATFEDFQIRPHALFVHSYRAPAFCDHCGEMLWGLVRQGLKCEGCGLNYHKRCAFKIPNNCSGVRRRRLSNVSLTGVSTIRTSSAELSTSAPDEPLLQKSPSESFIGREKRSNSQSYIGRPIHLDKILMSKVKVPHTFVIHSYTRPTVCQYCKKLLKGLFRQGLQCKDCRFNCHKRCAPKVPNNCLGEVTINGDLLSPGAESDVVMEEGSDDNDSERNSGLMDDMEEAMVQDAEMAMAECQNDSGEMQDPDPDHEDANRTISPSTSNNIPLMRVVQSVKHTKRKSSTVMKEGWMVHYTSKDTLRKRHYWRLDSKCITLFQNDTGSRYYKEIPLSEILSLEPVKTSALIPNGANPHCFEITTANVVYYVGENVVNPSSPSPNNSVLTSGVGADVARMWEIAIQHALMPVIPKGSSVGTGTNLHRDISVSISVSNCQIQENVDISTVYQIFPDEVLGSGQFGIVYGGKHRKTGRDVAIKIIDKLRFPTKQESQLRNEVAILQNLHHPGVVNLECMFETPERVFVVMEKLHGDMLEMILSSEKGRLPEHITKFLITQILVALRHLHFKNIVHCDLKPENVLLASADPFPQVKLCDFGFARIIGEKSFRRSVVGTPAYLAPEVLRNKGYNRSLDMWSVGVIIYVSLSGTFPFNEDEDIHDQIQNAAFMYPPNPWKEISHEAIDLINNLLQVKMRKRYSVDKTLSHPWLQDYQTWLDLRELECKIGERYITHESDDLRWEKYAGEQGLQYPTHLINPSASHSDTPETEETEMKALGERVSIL

B1: FGF10: mitogen (fibroblast growth factor) reported to be involved in pancreatic development, from R&D systems (protein, UniProt O15520 38-208, looked up)
Fibroblast growth factor 10: QALGQDMVSPEATNSSSSSFSSPSSAGRHVRSYNHLQGDVRWRKLFSFTKYFLKIEKNGKVSGTKKENCPYSILEITSVEIGVVAVKAINSNYYLAMNKKGKLYGSKEFNNDCKLKERIEENGYNTYASFNWQHNGRQMYVALNGKGAPRRGQKTRRKNTSAHFLPMVVHS

How the values were obtained:
[1] = system: HUES8-derived population (Pdx1+ cells); test: Pdx1 antibody staining of treated HUES8-derived population; assay type: cell-based, human; conditions: for percentage of Pdx1+ cells, PKC antagonists in the presence of ILV: 300 nM ILV plus 1 μM BISI or 10 μM Gö 6983, 4 days; for percentage of Pdx1+ cells, PKC agonists in the absence of ILV: HUES8-derived definitive endoderm population, 500 nM TPB or 14 nM PMA
Procedure: (§1) To generate a starting population, HUES cells were cultured on MEF feeder cells until 80-90% confluent, then treated with 25 ng/ml Wnt3a (R&D systems)+100 ng/ml Activin A (R&D systems) in advanced RPMI (A-RPMI, Invitrogen) supplemented with 1×L-Glu and 1×PS for 1 day, and then 100 ng/ml Activin A in A-RPMI supplemented with 1×L-Glu, 1×PS and 0.2% FBS (Invitrogen). Two days later, the media was changed to 50 ng/ml FGF10 (R&D systems)+0.25 μM KAAD-CYC (Calbiochem) in A-RPMI supplemented with 1×L-Glu, 1×PS and 2% FBS and maintained for additional 2 days. Cells were then transferred to 50 ng/ml FGF10+0.25 μM KAAD-CYC+2 μM RA (Sigma) in DMEM supplemented with 1×L-Glu, 1×PS, 1×B27 (Invitrogen) and cultured for an additional 4 days. ILV was obtained from Axxora, KAAD-CYC, TPB, PMA, BISI, Gö 6983, U0126 and PD98059 were obtained from Calbiochem and RA were obtained from Sigma.
(§2) Cells were fixed with 10% formalin solution (Sigma) for 20 min at room temperature. Immunostaining was carried out with standard protocols. The following primary antibodies were used: goat anti-Pdx1 (1:500; R&D system); rabbit anti-FOXA2 (1:500; Upstate); rabbit anti-HNF6 (1:200; Santa Cruz Biotech); guinea pig anti-insulin (1:1000; Dako); rabbit anti-c-peptide (1:500; Linco); rabbit anti-amylase (1:200, Sigma); goat anti-HNF1β (1:100, Santa Cruz Biotech); and biotinylated DBA (1:400; Vector Lab). Alexa-488-, Alexa-555, and Alexa-647-conjugated donkey antibodies against mouse, rabbit, guinea pig and goat, and Pacific Blue conjugate-streptavidin (Invitrogen) were used at 1:300 dilution.
To determine whether PKC signaling is being activated in HUES-derived cells, HUES8-derived definitive endoderm population was treated with two PKC agonists, TPB ((2S,5S)-(E,E)-8-(5-(4-(trifluoromethyl)phenyl)-2,4-pentadienoylamino)benzolactam) and PMA (phorbol-12-myristate-13-acetate), in the absence of ILV. […] Furthermore, HUES8-derived population was treated with two PKC antagonists, BISI (Bisindolylmaleimide I) and Gö 6983, in the presence of ILV.
Experiments were performed to monitor downstream signaling by PKC. Since ERK signaling has been reported to be regulated by PKC (Ueda et al., 1996), the activity of ERK signaling was examined with Western blotting to detect the phosphorylation of ERK1/2 at Thr-202/Tyr-204.

[2] = molecular target: T1, PKCμ; conditions: Gschwendt et al., 1996; cited from earlier work
[3] = system: HUES9-derived population (Pdx1+ cells); test: High throughput screen for compounds increasing Pdx1+ cells; assay type: cell-based, human; conditions: HUES9-derived cells, 10 μM, 1 μM and 0.1 μM, four days
Procedure: as §1
For a high throughput screen, the starting material was hESCs (HUES9 cells) that were induced to pancreatic lineage using a slightly modified version of previously published protocols (D'Amour et al., 2006; Jiang et al., 2007), as described in Example 1. After 9 days of stepwise differentiation, a heterogeneous population of cells was generated containing cells that stained strongly, weakly or not at all with a Pdx1 antibody. Any cell that stained with the Pdx1 staining antibody was counted as Pdx1^+ cells regardless of staining intensity. Together, the Pdx1^+ cells comprises 5.1±1.8% of the total cell number.
To carry out the screen, the cells were trypsinized and plated on 804G-coated 384-well plates at 6000 cells/well using chemically defined media (DMEM supplemented with 2 mM L-Glu, 1×PS, 1×B27). After overnight incubation, compounds were screened by adding them to provide a final concentration of 10 μM, 1 μM and 0.1 μM. Four days later, the cells were stained with Pdx1 antibody and the plates were analyzed with Opera high content screening system (PerkinElmer).
The wells in which the percentage of Pdx1^+ cells is higher than present at day 1 and higher than day 5 treated with DMSO were selected as primary hits. Compounds that increase both the number and percentage of Pdx1^+ cells were picked as primary hits. Eleven compounds produced hits. (FIG. 7, Table I in FIG. 9 and formulas in FIG. 10). These eleven compounds were (−)-Indolactam V (FIG. 1c and Compound I in Table 1) boldine (Compound II), rotenone (Compound III), ethopropazine hydrochloride (Compound IV), cedrelone (Compound V), prieurianin (Compound VI), strophanthidin (Compound VII), trimeprazine tartrate (Compound VIII), terconazole (Compound IX), dimethisoquin hydrochloride (Compound X), harmine hydrochloride (Compound XI).
as §2

Molecule	primary hits (increase both the number and percentage of Pdx1+ cells) [3]	other results
COc1ccc2c(c1)c(C1=C(c3c[nH]c4ccccc34)C(=O)NC1=O)cn2CCCN(C)C [Gö 6983]		percentage of Pdx1+ cells, PKC antagonists in the presence of ILV ([1]; HUES8-derived population): 0.8±0.2%; suppression of PKCμ kinase activity [2]: not effective
C=C(C)[C@H]1Cc2c(ccc3c2O[C@@H]2COc4cc(OC)c(OC)cc4[C@@H]2C3=O)O1 [Compound III, rotenone]	hits	
CCCCCCCCCCCCCC(=O)O[C@@H]1[C@@H](C)[C@@]2(O)[C@@H](C=C(CO)C[C@]3(O)C(=O)C(C)=C[C@@H]23)[C@@H]2C(C)(C)[C@]12OC(C)=O [PMA, phorbol-12-myristate-13-acetate]		percentage of Pdx1+ cells, PKC agonists in the absence of ILV ([1]; 4 days): 21.3±4.0%
C=C1[C@@H]([C@@]2(C)[C@@H](OC(C)=O)CC(=O)O[C@](C)(COC(C)=O)[C@@H]2C(=O)OC)[C@@H](OC=O)[C@H](OC(=O)[C@H](O)[C@H](C)CC)[C@@]2(C)[C@H](c3ccoc3)CC(=O)[C@]12O [Compound VI, prieurianin]	hits	
COc1ccc2c(c1)[nH]c1c(C)nccc12.Cl [Compound XI, harmine hydrochloride]	hits	
CCCCc1cc2ccccc2c(OCCN(C)C)n1 [Compound X, dimethisoquin hydrochloride]	hits	
CC(C)[C@H]1C(=O)N[C@H](CO)Cc2cc(NC(=O)/C=C/C=C/c3ccc(C(F)(F)F)cc3)ccc2N1C [TPB, (2S,5S)-(E,E)-8-(5-(4-(trifluoromethyl)phenyl)-2,4-pentadienoylamino)benzolactam]		percentage of Pdx1+ cells, PKC agonists in the absence of ILV ([1]; 4 days): 15.4±2.9%
COc1cccc(-c2cc(=O)c3ccccc3o2)c1N [PD098059]		percentage of Pdx1+ cells, MEK/ERK inhibitors together with ILV ([1]; 300 nM ILV plus 50 μM PD098059 or 10 μM U0126, 4 days): 0.4±0.2%
COc1cc2c(cc1O)C[C@H]1c3c(cc(O)c(OC)c3-2)CCN1C [Compound II, boldine]	hits	
C[C@]12CC[C@H]3[C@@H](CC[C@]4(O)C[C@@H](O)CC[C@]34C=O)[C@@]1(O)CC[C@@H]2C1=CC(=O)OC1 [Compound VII, strophanthidin]	hits	
CC(C)N1CCN(c2ccc(OCC3COC(Cn4cncn4)(c4ccc(Cl)cc4Cl)O3)cc2)CC1 (stereo not drawn) [Compound IX, terconazole]	hits	
N#CC(=C(/N)Sc1ccccc1N)/C(C#N)=C(\N)Sc1ccccc1N [Compound U0126]		percentage of Pdx1+ cells, MEK/ERK inhibitors together with ILV [1]: 0.3±0.2%
CC1(C)C(=O)C=C[C@@]2(C)C1=C(O)C(=O)[C@]1(C)[C@@H]2CC[C@@]2(C)[C@H](c3ccoc3)C[C@H]3O[C@]321 [Compound V, cedrelone]	hits	
CN(C)CCCn1cc(C2=C(c3c[nH]c4ccccc34)C(=O)NC2=O)c2ccccc21 [BISI, Bisindolylmaleimide I]		percentage of Pdx1+ cells, PKC antagonists in the presence of ILV ([1]; HUES8-derived population): 0.6±0.1%
CCN(CC)C(C)CN1c2ccccc2Sc2ccccc21 (stereo not drawn) [Compound IV, ethopropazine hydrochloride]	hits	
trimeprazine tartrate [Compound VIII]	hits	
B1		percentage of cells stained by Pdx1 antibody ([1]; HUES8-derived population, 4 days, 300 nM ILV and/or 50 ng/ml FGF10): 5.7±2.3%
